Values of other authors, collected in patent US11532831B1, “Redox-active compounds and uses thereof” (Palo Alto Research Center Incorporated, priority 2021, dated 2022).

Experiments:
[1] = cited from earlier work
[2] = on platinum (footnote); cited from earlier work

In the case of “bis(trimethylammoniopropyl)ferrocene [BTMAP-Fc]”, the “Solubility at pH 7” value [1] is listed as 1.9M.

In the case of “ethylenediaminetetraacetatoferrate(2-) (Fe(II)-EDTA)/ethylenediaminetetraacetatoferrate(1-) (Fe(III)-EDTA) [Fe(EDTA)]”, the Kinetic rate constant [2] is listed as 0.026 cm/s.

In the case of “iron(II) (Fe^2+)/iron(III) (Fe^3+) [Fe^2+/Fe^3+]”, the “Solubility at pH 7” value [1] is given as “insoluble”.
